Laboratory results published in US11478526B2, “Methods of reducing neuroinflammation or toxicity induced by amyloid beta (abeta) using glucocorticoid induced leucine zipper (GILZ) analog peptides” (INDIANA UNIVERSITY RESEARCH AND TECHNOLOGY CORPORATION, priority 2016, dated 2022).

Key:
[1] = LD50 predicted from in-vitro IC50 by regression (Speilmann method); conditions: for LD50 estimated from IC50: Log (LD50)=0.506×(log IC50)+0.475, body weight; for LD50 (mM): score 1/0
Protocol: Lactate dehydrogenase (LDH) assay: To detect direct GA-induced cell lysis we performed LDH release assays (Roche Molecular Diagnostics). […] Approximately 5×10^4 U373 cells/well were cultured in 96-well plates in the presence of increasing concentrations of individual GA or control peptide from 0.5 μM to 500 μM. Cells treated with 2% triton-X 100 (Sigma Aldrich, St. Louis, Mo.) for 10 minutes served as positive control. Untreated cells served as controls for spontaneous LDH-release. Specific LDH-release was calculated according to the following formula: LDH-release %=100*(GA or control peptide treated cells—untreated cells)/(positive control-untreated cells). The IC50 values were extrapolated by logarithmic estimation. The LD50 in mg/kg was predicted using the formula, Log (LD50)=0.506×(log IC50)+0.475. […]

[2] = system: primary human fetal brain cells (HFB); assay: CTG viability of primary human fetal brain cultures with or without Aβ1-42; assay type: cell-based; conditions: for viability of Aβ1-42 exposed HFB cells: Aβ1-42 10 μM
Protocol: Functional assays in human primary mixed brain cultures (HFB). Primary cultures of mixed HFB were prepared from the brain parenchyma of aborted fetuses (80-100 days gestational age). The tissues were obtained from the Birth Defects Research Laboratory (BDRL) at the University of Washington, Seattle with approval from the Indiana University Institutional Review Board (IRB). The IRB determined that the use of anonymous human biological materials received from this depository is not considered as human subjects research (supplementary document, s1). The NIH funded BDRL tissue distribution program operates separately in full compliance with all relevant state and federal laws and regulations with donors providing written informed consent.
Fetal brain materials (10-20 g) were shipped overnight in chilled Hibernate-E medium (Invitrogen) supplemented with B27 (Invitrogen), GlutaMAX (Invitrogen) and antibiotic-antimycotic solution (Cellgro). HFB were prepared and cultured as described. Briefly, cells were cultured in Neurobasal medium (Invitrogen) without phenol red supplemented with 1×B27, […] GlutaMAX, 1×antibiotic cocktail, 5 ng/mL recombinant fibroblast growth factor 2 (bFGF) (Invitrogen), and 2 μL/mL Normocin (InVivoGen, San Diego, Calif., USA). Cells were counted and seeded onto poly-D-lysine (Sigma-Aldrich) coated 24-well plates (Corning, Lowell, Mass., USA) at 1.5×10^5 cells per well and maintained at 37° C. in a 5% CO2 incubator. Half media changes were performed every 4th day of culture and morphology was monitored via phase contrast microscopy. Culture medium was removed from cells on day 17 (DIV17) and replaced with Neurobasal medium with B27. […] Cells and conditioned media were harvested and stored for further analysis. Relative ATP concentration was measured using the CTG kit (Promega). Data is presented as ΔRLU=RLU of Aβ1-42 exposed cells-RLU unexposed cells. Conditioned media collected were assessed for specific cytokines using the OptEIA kits (BD Biosciences). Nuclear and cytoplasmic fractions were extracted using the CelLytic™ NuCLEAR™ Extraction Kit (Sigma) following manufacturer's protocol. Five microgram of nuclear extracts was incubated in a 96-well plate coated with oligonucleotides containing the NF-κβ consensus nucleotide sequence (5′-[…]-3′) (SEQ ID NO: 30). The activated NF-κβ bound to DNA was detected by anti-p65 antibody followed by a peroxidase coupled secondary antibody and substrate using the TransAM kit protocol (Active Motif). Nuclear extracts of Raji cells was used as the positive control.
(§1) Select PGA protects against Aβ1-42 induced toxicity, prevents p65 activation and cytokine response in human fetal brain (HFB) cells. […] Viability in terms of relative luminescent Units (RLU) was quantified using a Glowmax luminometer (Promega, Wis.). Data are presented as ARLU=RLU of Aβ1-42 exposed cells-RLU of unexposed cells. […] The mean RLU of vehicle treated HFB varied between 7352.75+/−1265.2 and 16157.5+/−4950. Average RLU of cultures exposed to Aβ1-42 varied between 6067.25+/−903.05 and 11574.25+/−4139.3 in different experiments. […] The culture supernatants were assessed for cytokines by ELISA (R&D Systems, Minn.). […] Primary HFB cultured similarly and harvested at the end of 4 hours was assessed for nuclear p65 using TransAM kit for NF-κB p65 (Active Motif, Calif.).

[3] = system: activated p65 NF-κB subunit; assay: Nuclear p65 DNA binding (TransAM NF-κB ELISA) in HFB; assay type: cell-based, human; conditions: Aβ1-42 exposed, 4 hours
Protocol: Fetal brain materials (10-20 g) were shipped overnight in chilled Hibernate-E medium (Invitrogen) supplemented with B27 (Invitrogen), GlutaMAX (Invitrogen) and antibiotic-antimycotic solution (Cellgro). HFB were prepared and cultured as described. Briefly, cells were cultured in Neurobasal medium (Invitrogen) without phenol red supplemented with 1×B27, […] GlutaMAX, 1×antibiotic cocktail, 5 ng/mL recombinant fibroblast growth factor 2 (bFGF) (Invitrogen), and 2 μL/mL Normocin (InVivoGen, San Diego, Calif., USA). Cells were counted and seeded onto poly-D-lysine (Sigma-Aldrich) coated 24-well plates (Corning, Lowell, Mass., USA) at 1.5×10^5 cells per well and maintained at 37° C. in a 5% CO2 incubator. Half media changes were performed every 4th day of culture and morphology was monitored via phase contrast microscopy. Culture medium was removed from cells on day 17 (DIV17) and replaced with Neurobasal medium with B27. Appropriate wells were then added vehicle, or carrier peptide or individual GA or control peptide (at 50 μM) for 30 min followed by exposure to Aβ1-42 at a final concentration of 10 μM/well and incubated for 4 hours or 48 hours. Cells and conditioned media were harvested and stored for further analysis. Relative ATP concentration was measured using the CTG kit (Promega). Data is presented as ΔRLU=RLU of Aβ1-42 exposed cells-RLU unexposed cells. Conditioned media collected were assessed for specific cytokines using the OptEIA kits (BD Biosciences). Nuclear and cytoplasmic fractions were extracted using the CelLytic™ NuCLEAR™ Extraction Kit (Sigma) following manufacturer's protocol. Five microgram of nuclear extracts was incubated in a 96-well plate coated with oligonucleotides containing the NF-κβ consensus nucleotide sequence (5′-[…]-3′) (SEQ ID NO: 30). The activated NF-κβ bound to DNA was detected by anti-p65 antibody followed by a peroxidase coupled secondary antibody and substrate using the TransAM kit protocol (Active Motif). Nuclear extracts of Raji cells was used as the positive control.
as §1, with “16157.5+/−4950.” for “16157.5+/−4950. Average RLU of cultures exposed to Aβ1-42 varied between 6067.25+/−903.05 and 11574.25+/−4139.3 in different experiments.”

[4] = PGA at IC50 concentration, 24 hours
[5] = 50 μM peptide, vs untreated Aβ1-42 exposed cultures

Row | Substance | LD50 estimated from IC50 [1] [mg/kg] | LD50 (mM) [1] | tolerance of HFB cultures (ΔRLU, CTG) ([2]; PGA at IC50 concentration) | viability of Aβ1-42 exposed HFB cells [2, 4] | nuclear p65 ([3]; PGA at IC50 concentration) | viability of Aβ1-42 exposed HFB cells [2, 5] | nuclear p65 ([3]; 50 μM peptide)
1 | Ac-EPAPESPQV-NH2 [PGA-4] | 1693.87 | 1 (>100) | well tolerated | significantly higher | decreased nuclear p65 |  | 
2 | Ac-EPAPLAPYG-NH2 [GA-1] | 380.44 |  |  |  |  | significantly higher | trend towards decreased nuclear p65
3 | Ac-EPAPESPQV-NH2 [GA-2] | 369.42 |  |  |  |  | significantly higher | trend towards decreased nuclear p65
4 | Ac-EPAPLAPYG-NH2 [PGA-2] | 1396.83 | 1 (>100) | well tolerated | significantly higher | decreased nuclear p65 |  | 
